Laboratory results taken from publication PMC11601558, “SLC6A19 inhibition facilitates urinary neutral amino acid excretion and lowers plasma phenylalanine” (JCI Insight, 2024).
Several values for one entry are separate records, joined by “and”; a condition that tells them apart may be missing. Identical values can stand only once. Like-named read-outs stand apart in the source and are kept apart here.

Target: T1, mouse SLC6A19 (Mus musculus, UniProt Q9D687)
T1 construct: expressed in transfected cells
T1 sequence (Q9D687 1-634): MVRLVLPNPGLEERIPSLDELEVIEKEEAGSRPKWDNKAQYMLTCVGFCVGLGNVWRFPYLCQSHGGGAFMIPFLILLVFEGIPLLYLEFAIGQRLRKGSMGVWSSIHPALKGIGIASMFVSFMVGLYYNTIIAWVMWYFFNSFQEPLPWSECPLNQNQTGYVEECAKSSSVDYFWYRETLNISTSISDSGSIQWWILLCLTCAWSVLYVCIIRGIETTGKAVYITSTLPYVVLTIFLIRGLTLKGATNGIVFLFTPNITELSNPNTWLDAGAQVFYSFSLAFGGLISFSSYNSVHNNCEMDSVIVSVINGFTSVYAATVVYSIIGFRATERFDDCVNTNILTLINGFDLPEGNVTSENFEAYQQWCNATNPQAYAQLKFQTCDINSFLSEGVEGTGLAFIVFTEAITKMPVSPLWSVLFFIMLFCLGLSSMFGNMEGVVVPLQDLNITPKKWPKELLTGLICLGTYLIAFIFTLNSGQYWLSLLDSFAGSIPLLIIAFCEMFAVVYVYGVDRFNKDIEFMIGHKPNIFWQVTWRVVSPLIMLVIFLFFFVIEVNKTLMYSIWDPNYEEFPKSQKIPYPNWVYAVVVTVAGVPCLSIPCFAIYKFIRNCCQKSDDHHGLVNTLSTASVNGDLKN
T1 sequence (Q9ESG4 15-222 partner): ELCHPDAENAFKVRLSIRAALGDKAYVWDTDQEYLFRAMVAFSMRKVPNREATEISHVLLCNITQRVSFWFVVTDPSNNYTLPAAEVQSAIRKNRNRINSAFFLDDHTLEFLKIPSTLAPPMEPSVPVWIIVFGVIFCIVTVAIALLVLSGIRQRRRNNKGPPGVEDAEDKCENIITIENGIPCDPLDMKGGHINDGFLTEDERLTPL
Assay: Isoleucine transport assay, Flp-In T-REx 293 cells coexpressing mouse SLC6A19 and TMEM27
Format: cell-based
Settings: for isoleucine transport, Mouse (Fig 1f curve point) / isoleucine transport, Mouse (Fig 1c curve point): technical replicates; for IC50: read-out: IC50 against mouse SLC6A19, isoleucine transport assay
Procedure: Flp-In T-REx 293 cells (Thermo Fisher Scientific) were engineered to coexpress C-terminally V5-tagged human or mouse SLC6A19 under the control of a tetracycline-inducible promoter and human or mouse myc-DDK-tagged TMEM27 under the control of a constitutively active promoter. Cells were maintained in DMEM/F12 medium supplemented with 10% FBS, 100 units/mL penicillin, 100 μg/mL streptomycin, 200 μg/mL hygromycin, 10 μg/mL blasticidin, and 300 μg/mL geneticin (all from Thermo Fisher Scientific) at 37°C and 5% CO2.
Flp-In T-REx 293 cells stably coexpressing human or mouse SLC6A19 and TMEM27 were plated in 384-well plates in the presence of 1 μg/mL tetracyclin (Sigma-Aldrich) to induce the expression of SLC6A19. After 24 hours, cells were washed with live cell imaging solution (LCIS, Thermo Fisher Scientific) before JN-170 or JNT-517 were added to cells in 10-point concentration response curves in 0.5% DMSO in Krebs buffer (140 mM NaCl, 4.7 mM KCl, 2.5 mM CaCl2, 1.2 mM MgCl2, 11 mM HEPES, 10 mM glucose, pH 7.4). Cells were incubated with compounds for 1 hour at room temperature before 1 mM ^13C6,^15N1-labeled L-isoleucine (Cambridge Isotope Laboratories) was added as a transport substrate. After 20 minutes incubation at room temperature, cells were washed and lysed in H2O with 15 μM internal standard D-Leucine-D10 (CDN Isotopes) for 1–2 hours. A standard curve of ^13C6,^15N1-L-isoleucine was added to each plate following cell lysis. Plates were centrifuged at 3,700g to remove cell debris, and supernatant was diluted in 2 steps to a final 1:10 dilution in acetonitrile/0.1% formic acid. Sample desalting was performed on a high throughput RapidFire-365 (Agilent) using a hydrophilic interaction liquid chromatography (HILIC) column. A quantitative time-of-flight (Q-ToF) mass spectrometer (Agilent) was used to detect analytes. Agilent MassHunter quantitative analysis for time of flight was used as the integration software for measuring area under the peak for both ^13C6,^15N1-L-isoleucine and D-Leucine-D10 internal standard.
IC50 values for transport inhibition in cells overexpressing SLC6A19 and TMEM27 were calculated using a 4-parameter logistic regression in Collaborative Drug Discovery (CDD). Reported IC50 values are geometric means of 4–6 independent experiments. For postmortem intestinal transport assays, single outliers of quadruplicate replicates were excluded from the calculation if a signal value’s distance to the mean exceeded 35% of the signal average. The IC50 values of individual experiments were calculated with a 3- or 4-parameter logistic regression using GraphPad Prism 9. The reported IC50 value represents the geometric mean of n = 5 experiments from 3 individual donors. Statistical comparison of urinary Phe excretion in Pah^enu2 mice treated with vehicle or JN-170 was conducted using 1-way analysis of variance (ANOVA) with Tukey’s post hoc comparison. Statistical analysis of baseline-adjusted plasma Phe in mice treated with vehicle or JN-170 was determined by 2-way ANOVA with Dunnett’s post hoc comparison. All statistical analyses were performed using GraphPad Prism 9. For clinical studies, group sizes were not determined based on statistical power calculations. Statistical significance of pharmacodynamic results was not assessed. Values are reported as mean (urinary Phe excretion, T1/2, Cl/F), geometric mean (Cmax/D, AUC0-inf/D), or median (Tmax).

SMILES: N#Cc1ccc(-c2noc([C@]3(C(F)(F)F)CCN(C(=O)NCCC4(N)CC4)C3)n2)cc1 [JN-170]
- isoleucine transport, Mouse (Fig 1f curve point) (0.000722 uM): 84.1 and 94.9
- isoleucine transport, Mouse (Fig 1f curve point) (0.00219 uM): 91.4 and 88.7
- isoleucine transport, Mouse (Fig 1f curve point) (0.00438 uM): 84.6 and 91.9
- isoleucine transport, Mouse (Fig 1f curve point) (0.015313 uM): 82.4 and 86.6
- isoleucine transport, Mouse (Fig 1f curve point) (0.048125 uM): 65.9 and 67.7
- isoleucine transport, Mouse (Fig 1f curve point) (0.144375 uM): 32.3 and 28.6
- isoleucine transport, Mouse (Fig 1f curve point) (0.4375 uM): 14.6 and 12.2
- isoleucine transport, Mouse (Fig 1f curve point) (1.3125 uM): -0.346 and -1.17
- isoleucine transport, Mouse (Fig 1f curve point) (3.9375 uM): -4.28 and -6.91
- isoleucine transport, Mouse (Fig 1f curve point) (11.8125 uM): -7.48 and -5.64
- IC50 (geometric mean n = 6): 97 nM

SMILES: NC(=O)N1CCC[C@@H](N(C(=O)NCc2ccc(OC(F)(F)F)cc2F)C2CC2)C1 [JNT-517]
- isoleucine transport, Mouse (Fig 1c curve point) (0.000722 uM): 87.6 and 103
- isoleucine transport, Mouse (Fig 1c curve point) (0.00219 uM): 108 and 105
- isoleucine transport, Mouse (Fig 1c curve point) (0.00438 uM): 100 and 89.5
- isoleucine transport, Mouse (Fig 1c curve point) (0.0153125 uM): 85.6 and 104
- isoleucine transport, Mouse (Fig 1c curve point) (0.048125 uM): 88.3 and 96.6
- isoleucine transport, Mouse (Fig 1c curve point) (0.144375 uM): 78.2 and 95.8
- isoleucine transport, Mouse (Fig 1c curve point) (0.4375 uM): 86.6 and 108
- isoleucine transport, Mouse (Fig 1c curve point) (1.3125 uM): 93.2 and 97.6
- isoleucine transport, Mouse (Fig 1c curve point) (3.9375 uM): 89 and 86.1
- isoleucine transport, Mouse (Fig 1c curve point) (11.8125 uM): 86 and 88.2
- IC50: > 11800 nM
